We go through five molecules from PubChem BioAssay AID1259407 (Chemical Carcinogenesis Research Information System (CCRIS), 2018).

The source made the active and inactive calls. How the calls were made is not given here.

This series relates to CCRIS mutagenicity, Ames/micronucleus/aberration tests. The experiment in a line: CCRIS mutagenicity studies.
The mark [1] stands for this setting: Test System: AMES SALMONELLA TYPHIMURIUM, Strain/Indicator: TA98, Metabolic Activation: NONE, Method: PREINCUBATION
The mark [2] stands for this setting: Test System: AMES SALMONELLA TYPHIMURIUM, Strain/Indicator: TA100, Metabolic Activation: NONE, Method: PREINCUBATION
The mark [3] stands for this setting: Test System: AMES SALMONELLA TYPHIMURIUM, Strain/Indicator: TA1535, Metabolic Activation: NONE, Method: PREINCUBATION
The mark [4] stands for this setting: Test System: AMES SALMONELLA TYPHIMURIUM, Strain/Indicator: TA1537, Metabolic Activation: NONE, Method: PREINCUBATION
[5] abbreviates: Test System: AMES SALMONELLA TYPHIMURIUM, Strain/Indicator: TA98, Metabolic Activation: NONE, Method: STANDARD PLATE.
The mark [6] stands for this setting: Test System: AMES SALMONELLA TYPHIMURIUM, Strain/Indicator: TA100, Metabolic Activation: NONE, Method: STANDARD PLATE.

Take `CC(=O)c1c(=O)cc(C)oc1=O`: the mutagenic call is “active; positive” (End Point: IN VIVO MICRONUCLEUS, Test System: BONE MARROW POLYCHROMATIC ERYTHROCYTES, Species: MOUSE, Strain/Sex: DDY/MALE, Route: IP); “inactive; negative” (Test System: AMES SALMONELLA TYPHIMURIUM, Strain/Indicator: TA97A, Metabolic Activation: NONE, Method: PREINCUBATION); “inactive; negative” (Test System: AMES SALMONELLA TYPHIMURIUM, Strain/Indicator: TA97A, Metabolic Activation: RAT, LIVER, S-9, AROCLOR 1254, Method: PREINCUBATION); “inactive; negative” (Test System: AMES SALMONELLA TYPHIMURIUM, Strain/Indicator: TA98, Metabolic Activation: HAMSTER, LIVER, S-9, AROCLOR 1254 (10%), Method: PREINCUBATION); “inactive; negative” under setting [1]; “inactive; negative” (Test System: AMES SALMONELLA TYPHIMURIUM, Strain/Indicator: TA98, Metabolic Activation: RAT, LIVER, S-9, AROCLOR 1254 (10%), Method: PREINCUBATION). In addition, the mutagenic call is “inactive; negative” (Test System: AMES SALMONELLA TYPHIMURIUM, Strain/Indicator: TA100, Metabolic Activation: HAMSTER, LIVER, S-9, AROCLOR 1254 (10%), Method: PREINCUBATION); “inactive; negative” under setting [2]; “inactive; negative” (Test System: AMES SALMONELLA TYPHIMURIUM, Strain/Indicator: TA100, Metabolic Activation: RAT, LIVER, S-9, AROCLOR 1254 (10%), Method: PREINCUBATION); “inactive; negative” (Test System: AMES SALMONELLA TYPHIMURIUM, Strain/Indicator: TA102, Metabolic Activation: NONE, Method: PREINCUBATION); “inactive; negative” (Test System: AMES SALMONELLA TYPHIMURIUM, Strain/Indicator: TA102, Metabolic Activation: RAT, LIVER, S-9, AROCLOR 1254, Method: PREINCUBATION); “inactive; negative” (Test System: AMES SALMONELLA TYPHIMURIUM, Strain/Indicator: TA1535, Metabolic Activation: HAMSTER, LIVER, S-9, AROCLOR 1254 (10%), Method: PREINCUBATION). Further, the mutagenic call under setting [3] is “inactive; negative”; the mutagenic call (Test System: AMES SALMONELLA TYPHIMURIUM, Strain/Indicator: TA1535, Metabolic Activation: RAT, LIVER, S-9, AROCLOR 1254 (10%), Method: PREINCUBATION) was “inactive; negative”; the mutagenic call (Test System: AMES SALMONELLA TYPHIMURIUM, Strain/Indicator: TA1537, Metabolic Activation: HAMSTER, LIVER, S-9, AROCLOR 1254 (10%), Method: PREINCUBATION) is “inactive; negative”; the mutagenic call under setting [4] was “inactive; negative”; the mutagenic call (Test System: AMES SALMONELLA TYPHIMURIUM, Strain/Indicator: TA1537, Metabolic Activation: RAT, LIVER, S-9, AROCLOR 1254 (10%), Method: PREINCUBATION) is “inactive; negative”.

For `CCSc1cc(Cc2ccc(N)c(SCC)c2)ccc1N`, the mutagenic call by setting is: under setting [1], “inactive; negative”; (Test System: AMES SALMONELLA TYPHIMURIUM, Strain/Indicator: TA98, Metabolic Activation: RAT, LIVER, S-9, PCB, Method: PREINCUBATION) “active; positive”; under setting [2], “inactive; negative”; (Test System: AMES SALMONELLA TYPHIMURIUM, Strain/Indicator: TA100, Metabolic Activation: RAT, LIVER, S-9, PCB, Method: PREINCUBATION) “active; positive”.

`O=CC1=CCCC2CC12C=O` (stereo unspecified): the mutagenic call reads like this: under setting [5], “active; positive”; under setting [6], “active; positive”.

In the case of `C=CC=O`, the mutagenic call reads like this: (End Point: IN VITRO CHROMOSOMAL ABERRATIONS, Test System: CHINESE HAMSTER OVARY CELLS, Metabolic Activation: NONE) “inactive; negative”; (End Point: IN VITRO CHROMOSOMAL ABERRATIONS, Test System: CHINESE HAMSTER OVARY CELLS, Metabolic Activation: RAT, LIVER, S-9, AROCLOR 1254) “inactive; negative”; under setting [1], “active; positive”; (Test System: AMES SALMONELLA TYPHIMURIUM, Strain/Indicator: TA100, Metabolic Activation: GLUTATHIONE, Method: PREINCUBATION) “active; positive”; under setting [2], “active; positive”; (Test System: AMES SALMONELLA TYPHIMURIUM, Strain/Indicator: TA100, Metabolic Activation: RAT, LIVER, S-9, AROCLOR 1254, Method: PREINCUBATION) “active; positive”. Besides, the mutagenic call runs as follows: (Test System: AMES SALMONELLA TYPHIMURIUM, Strain/Indicator: TA102, Metabolic Activation: NONE, Method: STANDARD PLATE) “inactive; negative”; (Test System: AMES SALMONELLA TYPHIMURIUM, Strain/Indicator: TA104, Metabolic Activation: GLUTATHIONE, Method: PREINCUBATION) “active; positive”; (Test System: AMES SALMONELLA TYPHIMURIUM, Strain/Indicator: TA104, Metabolic Activation: NONE, Method: PREINCUBATION) “active; positive”; under setting [3], “inactive; negative”; (Test System: AMES SALMONELLA TYPHIMURIUM, Strain/Indicator: TA1535, Metabolic Activation: RAT, LIVER, S-9, AROCLOR 1254, Method: PREINCUBATION) “inactive; negative”; under setting [4], “inactive; negative”. Further, the mutagenic call (Test System: AMES SALMONELLA TYPHIMURIUM, Strain/Indicator: TA1537, Metabolic Activation: RAT, LIVER, S-9, AROCLOR 1254, Method: PREINCUBATION) was “inactive; negative”; the mutagenic call (Test System: AMES SALMONELLA TYPHIMURIUM, Strain/Indicator: TA1538, Metabolic Activation: NONE, Method: PREINCUBATION) was “inactive; negative”; the mutagenic call (Test System: AMES SALMONELLA TYPHIMURIUM, Strain/Indicator: TA1538, Metabolic Activation: RAT, LIVER, S-9, AROCLOR 1254, Method: PREINCUBATION) is “inactive; negative”; the mutagenic call (Test System: AMES SALMONELLA TYPHIMURIUM, Strain/Indicator: TA2638, Metabolic Activation: NONE, Method: STANDARD PLATE) was “active; positive”; the mutagenic call (Test System: CHINESE HAMSTER OVARY, Strain/Indicator: AS52/6-THIOGUANINE, Metabolic Activation: NONE, Method: STANDARD PLATE) is “inactive; negative”; the mutagenic call (Test System: CHINESE HAMSTER OVARY, Strain/Indicator: CHO-K1-BH4 (HGPRT)/6-THIOGUANINE, Metabolic Activation: NONE) was “inactive; negative”. The mutagenic call was “inactive; negative” (Test System: CHINESE HAMSTER OVARY, Strain/Indicator: CHO-K1-BH4 (HGPRT)/6-THIOGUANINE, Metabolic Activation: RAT, LIVER, S-9, AROCLOR 1254); “active; positive” (Test System: CHINESE HAMSTER V-79, Strain/Indicator: V-79/6-THIOGUANINE, Metabolic Activation: NONE); “inactive; negative” (Test System: E. COLI, Strain/Indicator: WP2 (PKM101), Metabolic Activation: NONE, Method: STANDARD PLATE); “inactive; negative” (Test System: E. COLI, Strain/Indicator: WP2 UVRA (PKM101), Metabolic Activation: NONE, Method: STANDARD PLATE); “inactive; negative” (Test System: E. COLI, Strain/Indicator: WP2 UVRA, Metabolic Activation: NONE, Method: PREINCUBATION).

As for `c1cc2ccc3ccc4ccc5ccc6ccc1c1c2c3c4c5c61`, the mutagenic call reads like this: (Test System: AMES SALMONELLA TYPHIMURIUM, Strain/Indicator: TA97, Metabolic Activation: NONE, Method: STANDARD PLATE) “inactive; negative”; (Test System: AMES SALMONELLA TYPHIMURIUM, Strain/Indicator: TA97, Metabolic Activation: RAT, LIVER, S-9, PCB, Method: STANDARD PLATE) “active; positive”; under setting [5], “inactive; negative”; (Test System: AMES SALMONELLA TYPHIMURIUM, Strain/Indicator: TA98, Metabolic Activation: RAT, LIVER, S-9, AROCLOR 1254, Method: FLUCTUATION) “active; positive”; (Test System: AMES SALMONELLA TYPHIMURIUM, Strain/Indicator: TA98, Metabolic Activation: RAT, LIVER, S-9, AROCLOR 1254, Method: STANDARD PLATE) “active; positive”; (Test System: AMES SALMONELLA TYPHIMURIUM, Strain/Indicator: TA98, Metabolic Activation: RAT, LIVER, S-9, PCB, Method: STANDARD PLATE) “active; positive”. Also, the mutagenic call was “inactive; negative” under setting [6]; “inactive; negative” (Test System: AMES SALMONELLA TYPHIMURIUM, Strain/Indicator: TA100, Metabolic Activation: RAT, LIVER, S-9, PCB, Method: STANDARD PLATE); “active; positive” (Test System: AMES SALMONELLA TYPHIMURIUM, Strain/Indicator: TA1537, Metabolic Activation: RAT, LIVER, S-9, AROCLOR 1254, Method: STANDARD PLATE); “active; positive” (Test System: AMES SALMONELLA TYPHIMURIUM, Strain/Indicator: TA1538, Metabolic Activation: RAT, LIVER, S-9, AROCLOR 1254, Method: STANDARD PLATE).
